Experimental data: patent US20140018353A1, “METHOD OF TREATING B-CELL MALIGNANT CANCERS AND T-CELL MALIGNANT CANCERS USING THIENOTRIAZOLODIAZEPINE COMPOUNDS” (Oncoethix SA, priority 2012, published 2014)
pIC50: −log10 of the molar value. Entries after “also recorded” stand apart in the source; their conditions may differ.

Columns and labels:
MM cell lines [1] = assay: % Annexin V positive cells; assay type: cell-based, human; settings: doses at IC50, 24 hours
Description: FIG. 18 illustrates the % Annexin V positive cells obtained after doses of Formula 2 at IC50 and 24 hours.

DLBCL cell lines [2] = assay: Cell cycle analysis, flow cytometry; assay type: cell-based, human; settings: five DLBCL cell lines, 24 h
Description: (§1) Cell cycle analysis was performed using the following procedure. Cells were treated with DMSO or different doses of Formula 2 for 24 hours, harvested and washed once in PBS and then fixed in 80% ethanol at 4° C. for at least one hour. Cells were stained with propidium iodide (PI 50 μg/ml, Sigma) in PBS containing RNAse-A (75 kU/ml, Sigma) and analyzed for DNA content using a FACScan flow cytometer (Becton Dickinson). Cell cycle analysis was performed using the ModFit LT software package (Verity Software House, Inc., Topsham, Me., USA).
Not having observed the induction of massive cell death despite the important effect on cell viability, the effect of Formula 2 on the cell cycle was investigated (FIG. 6). […] FIG. 7 illustrates representative flow cytometry profiles of untreated control cells and SU-DHL-6 cells treated for 24 hours with 0.2 in μM of Formula 2.

MCL cell lines = assay: MTT proliferation assay, 72 h; assay type: cell-based, human; settings: three MCL cell lines
Description: (§2) The activity of Formula 2 was evaluated in four mantle cell lymphoma (MCL), ten diffuse large B-cell lymphoma (DLBCL) established human cell lines, a set of multiple myeloma (MM) cell lines, three splenic marginal zone lymphoma (SMZL) cell lines and eight anaplastic large T-cell lymphoma (ALCL) cell lines. Cells were exposed to increasing doses of the compound for 72 hours.
(§3) The proliferation assay was performed using the following procedure. Cells were seeded into 96-well plates at the density of 104 per well. Formula 2 (Oncoethix SA, Lausanne, Switzerland) was dissolved in DMSO as a stock solution of 10 mM and divided in aliquots stored at −80° C. For each experiment, an aliquot of the stock solution was thawed and used within 2 to 3 days. Formula 2 was serially diluted in tissue culture media, added to cells (in five replicates) and incubated for 72 hours at 37° C. Control cells were treated with equal amounts of DMSO. The 3-(4,5-dimethylthiazol-2-yl)-2,5-diphenyltetrazolium bromide (MTT) (Sigma, Buchs, Switzerland) was prepared as a stock of 5 mg/mL in phosphate-buffered saline (PBS) and filter-sterilized. An amount of MTT solution equal to 0.5 mg/mL was then added to each well and incubated in the dark at 37° C. for 4 hours. Cells were then lysed with 25% sodium dodecylsulfate (SDS) lysis buffer and absorbance was read at 570 nm on a Beckman Coulter-AD340 instrument. Three independent experiments were run for each cell line. The doses corresponding to the IC50 were estimated by fitting a sigmoidal model through the dose response curve using the R statistical package (R: A Language and Environment for Statistical Computing, R Foundation for Statistical Computing, Vienna, Austria).

MM cell lines [3] = assay: MTT proliferation assay, 72 h; assay type: cell-based, human; settings: all MM cell lines
Description: as §2, §3

DLBCL cell lines [4] = assay: MTT proliferation assay, 72 h; assay type: cell-based, human; settings: for pIC50: Homo sapiens
Description: as §2, §3

VAL = assay: MTT proliferation assay, 72 h; assay type: cell-based, human
Description: as §2, §3

MM cell lines [5] = assay: Cell cycle analysis, flow cytometry; assay type: cell-based, human; settings: two of the three MM cell lines
Description: as §1
(§4) The activity of Formula 2 was also evaluated in MM cell lines. […] All the BRD factors were expressed (FIG. 14).

JeKo-1 = assay: MTT proliferation assay, 72 h; assay type: cell-based; settings: Homo sapiens, JeKo-1 (MCL), read-out: estimated IC50
Description: as §2, §3

DoHH2 = assay: MTT proliferation assay, 72 h; assay type: cell-based; settings: Homo sapiens, DOHH-2, DoHH2 (DLBCL), read-out: estimated IC50
Description: as §2, §3

MAVER-1 = assay: MTT proliferation assay, 72 h; assay type: cell-based; settings: Homo sapiens, Maver1, MAVER-1 (MCL), read-out: estimated IC50
Description: as §2, §3

SU-DHL-2 = assay: MTT proliferation assay, 72 h; assay type: cell-based; settings: Homo sapiens, SU-DHL-2 (DLBCL), read-out: estimated IC50
Description: as §2, §3

RPMI8226 = assay: MTT proliferation assay, 72 h; assay type: cell-based; settings: Homo sapiens, RPMI-8226, RPMI8226 (MM), read-out: estimated IC50
Description: as §2, §3

U266 = assay: MTT proliferation assay, 72 h; assay type: cell-based; settings: Homo sapiens, U-266, U266 (MM), read-out: estimated IC50
Description: as §2, §3

MM1S = assay: MTT proliferation assay, 72 h; assay type: cell-based; settings: Homo sapiens, MM1.S, MM1S (MM), read-out: estimated IC50
Description: as §2, §3

SU-DHL-5 = assay: MTT proliferation assay, 72 h; assay type: cell-based; settings: Homo sapiens, SU-DHL-5 (DLBCL), read-out: estimated IC50
Description: as §2, §3

U-2932 = assay: MTT proliferation assay, 72 h; assay type: cell-based; settings: Homo sapiens, U2932, U-2932 (DLBCL), read-out: estimated IC50
Description: as §2, §3

OCI-Ly7 = assay: MTT proliferation assay, 72 h; assay type: cell-based; settings: Homo sapiens, OCI-Ly7 (DLBCL), read-out: estimated IC50
Description: as §2, §3

Rec-1 = assay: MTT proliferation assay, 72 h; assay type: cell-based; settings: Homo sapiens, Rec1, Rec-1 (MCL), read-out: estimated IC50
Description: as §2, §3

Granta-519 = assay: MTT proliferation assay, 72 h; assay type: cell-based; settings: Homo sapiens, Granta-519 (MCL), read-out: estimated IC50
Description: as §2, §3

SU-DHL-7 = assay: MTT proliferation assay, 72 h; assay type: cell-based; settings: Homo sapiens, SU-DHL-7 (DLBCL), read-out: estimated IC50
Description: as §2, §3

SU-DHL-6 = assay: MTT proliferation assay, 72 h; assay type: cell-based; settings: Homo sapiens, SU-DHL-6 (DLBCL), read-out: estimated IC50
Description: as §2, §3

Karpass 422 = assay: MTT proliferation assay, 72 h; assay type: cell-based; settings: Homo sapiens, Karpass 422 (DLBCL), read-out: estimated IC50
Description: as §2, §3

SU-DHL-4 = assay: MTT proliferation assay, 72 h; assay type: cell-based; settings: Homo sapiens, SU-DHL-4 (DLBCL), read-out: estimated IC50
Description: as §2, §3

c-MYC in ALCL cell lines = assay: c-MYC mRNA levels, real-time PCR; assay type: cell-based, human; settings: 8 and 24 hours of treatment
Description: (§5) RNA was extracted using the RNA easy kit (Qiagen AG, Hombrechtikon, Switzerland). The concentration of total RNA was determined spectrophotometrically at 260 nm using a NanoDrop spectrometer (NanoDrop Technologies, Wilmington, Del., USA). One microgram of total RNA was reverse-transcribed using the Superscript First-Strand Synthesis System for real-time PCR kit (Invitrogen, Karlsruhe, Germany) according to the manufacturer's instructions. PCR amplification was performed using Fast SYBR Green Master Mix on a StepOnePlus real-time PCR System (Applied Biosystems, Foster City, Calif., USA). Primer sets (Table 2) were designed using the Primer3 software package (Rozen, S., Skaletsky, H. Primer3 on the WWW for general users and for biologist programmers. In: Misener, S., Krawetz, S. A., Eds. Methods in Molecular Biology, Vol. 132: Bioinformatics Methods and Protocols. Totowa, N.J., USA: Humana Press Inc., 2000, pp. 365-386). All samples were analyzed in triplicate. The relative quantity of the specific mRNA for each sample was calculated based on mean cycle threshold (Ct) values using the delta-delta Ct with a correction for experimental variations by normalization to the housekeeping gene GAPDH.
FIGS. 25A-25E illustrate c-MYC levels in ALCL cell lines after 8 hours of treatment with Formula 2. FIG. 26 illustrates c-MYC levels in ALCL cell lines after 24 hours of treatment with Formula 2.

MM cell lines [6] = assay: Cell death, propidium iodide flow cytometry; assay type: cell-based, human
Description: (§6) Cell death was evaluated as follows. Cells were treated with DMSO or different doses of Formula 2 for 72 hours, harvested and washed once in PBS and then stained with propidium iodide (PI 1 μg/ml, Sigma) in PBS and analyzed using a FACScan flow cytometer (Becton Dickinson, Mountain View, Calif., USA). The analysis of the percentage of cell death was performed using CellQuest Pro software (Becton Dickinson).
as §4

[7] = test system: MYC mRNA in MM cell lines; assay: MYC mRNA levels, real-time PCR; assay type: cell-based, human; settings: RPMI8226 and MM1S cell lines, 24 hours
Description: as §5

ALCL cell lines = assay: MTT proliferation assay; assay type: cell-based, human; settings: eight ALCL cell lines
Description: as §2
as §3, with “An amount of MTT solution equal to 0.5 mg/mL was then added to each well and incubated in the dark at 37° C. for 4 hours.” left out, “Three independent experiments were run for each cell line. The doses corresponding to the IC50 were estimated by fitting a sigmoidal model through the dose response curve using the R statistical package (R: A Language and Environment for Statistical Computing, R Foundation for Statistical Computing, Vienna, Austria).” left out
The activity of Formula 2 was also evaluated in ALCL cell lines using the procedures described in Example 1. […]

DLBCL cell lines [8] = assay: Cell death, propidium iodide flow cytometry; assay type: cell-based, human; settings: 24 and 72 hours, 0.1-15 μM; SU-DHL-2 and DoHH2
Description: as §6, with “[…],” for “Cells were treated with DMSO or different doses of Formula 2 for 72 hours,”

[9] = test system: NFκB target genes in DLBCL cell lines; assay: NFκB target gene expression; assay type: cell-based, human; settings: two DLBCL cell lines
Description: as §5
BRD4 co-activates transcriptional activation of NF-B via specific binding to acetylated ReIA. […]

SMZL cell lines = assay: MTT proliferation assay; assay type: cell-based, human; settings: three SMZL cell lines
Description: as §2
as §3, with “An amount of MTT solution equal to 0.5 mg/mL was then added to each well and incubated in the dark at 37° C. for 4 hours.” left out, “Three independent experiments were run for each cell line. The doses corresponding to the IC50 were estimated by fitting a sigmoidal model through the dose response curve using the R statistical package (R: A Language and Environment for Statistical Computing, R Foundation for Statistical Computing, Vienna, Austria).” left out
The activity of Formula 2 was also evaluated in SMZL cell lines using the procedures described in Example 1. […]

[10] = test system: c-MYC mRNA in DLBCL cell lines; assay: c-MYC mRNA levels, real-time PCR; assay type: cell-based, human
Description: as §5

[11] = test system: MYC mRNA in MM cell lines; settings: reported; cited from earlier work

## Cc1sc2c(c1C)C(c1ccc(Cl)cc1)=N[C@@H](CC(=O)Nc1ccc(O)cc1)c1nnc(C)n1-2 [Formula 2, (S)-2-[4-(4-chlorophenyl)-2,3,9-trimethyl-6H-thieno[3,2-f][1,2,4]triazolo-[4,3-a][1,4]diazepin-6-yl]-N-(4-hydroxyphenyl)acetamide]
MM cell lines [1]
  cytostatic versus cytotoxic effect (% Annexin V positive cells): cytostatic effect
DLBCL cell lines [2]
  effect on the cell cycle: induced a G1-arrest in a dose-dependent manner
MCL cell lines; Homo sapiens
  pIC50: 5.57 to 5.92
MCL cell lines
  cell viability: dose-dependent decrease in cell viability
MM cell lines [3]; Homo sapiens
  pIC50: 6.15 to 7.22
MM cell lines [3]
  cell viability: reduction in cell viability in all the cell lines
DLBCL cell lines [4]; seven very sensitive DLBCL cell lines
  pIC50: > 6.52
DLBCL cell lines [4]; two DLBCL cell lines
  pIC50: 5.85 to 6.22
DLBCL cell lines [4]; all the DLBCL cell lines
  cell viability: dose-dependent decrease in cell viability
VAL; Homo sapiens, VAL (DLBCL), MTT, 72 h, read-out: estimated IC50
  pIC50: < 4.90
VAL; VAL, doses of up to 10 μM
  reduction in cell proliferation: over 40%
MM cell lines [5]
  cell cycle analysis, S-phase: significant reduction of S-phase
JeKo-1
  pIC50: 5.55
DoHH2
  pIC50: 7.05
MAVER-1
  pIC50: 5.91
SU-DHL-2
  pIC50: 7.16
RPMI8226
  pIC50: 6.15
U266
  pIC50: 6.35
MM1S
  pIC50: 7.23
SU-DHL-5
  pIC50: 6.72
U-2932
  pIC50: 6.59
OCI-Ly7
  pIC50: 5.86
Rec-1
  pIC50: 5.91
Granta-519
  pIC50: < 4.82
SU-DHL-7
  pIC50: 6.88
SU-DHL-6
  pIC50: 6.96
Karpass 422
  pIC50: 6.56
SU-DHL-4
  pIC50: 6.22
c-MYC in ALCL cell lines
  c-MYC levels: down-regulation of c-MYC in a dose-dependent manner
MM cell lines [6]
  cell death: did not show an important increase of cell death
[7]
  MYC mRNA levels: significant reduction of MYC mRNA levels in a dose-dependent manner; also recorded: down-regulation of c-MYC in a dose-dependent manner
ALCL cell lines
  cell viability: dose-dependent decrease in cell viability
DLBCL cell lines [8]
  cell death: induces cell death only in a small percentage of the cell
[9]
  NFκB target genes expression: partial down-regulation of NFκB target genes
SMZL cell lines
  cell viability: dose-dependent decrease in cell viability
[10]; six DLBCL cell lines, 24 hours of treatment
  c-MYC mRNA levels: down-regulated in five of the six cell lines
[10]; three DLBCL cell lines, 1 hour of treatment
  c-MYC levels: down-regulation of c-MYC in two of three DLBCL cell lines

## Cc1sc2c(c1C)C(c1ccc(Cl)cc1)=N[C@@H](CC(=O)OC(C)(C)C)c1nnc(C)n1-2 [JQ1]
[11]
  MYC levels: down-regulation of MYC
